The target of assay [1] is T1, ADGRF1 (Homo sapiens, UniProt Q5T601, L769A).
T1 construct: Flag (N); expressed in transfected cells; host or cells: HEK293F
T1 sequence (Q5T601 20-910 L769A): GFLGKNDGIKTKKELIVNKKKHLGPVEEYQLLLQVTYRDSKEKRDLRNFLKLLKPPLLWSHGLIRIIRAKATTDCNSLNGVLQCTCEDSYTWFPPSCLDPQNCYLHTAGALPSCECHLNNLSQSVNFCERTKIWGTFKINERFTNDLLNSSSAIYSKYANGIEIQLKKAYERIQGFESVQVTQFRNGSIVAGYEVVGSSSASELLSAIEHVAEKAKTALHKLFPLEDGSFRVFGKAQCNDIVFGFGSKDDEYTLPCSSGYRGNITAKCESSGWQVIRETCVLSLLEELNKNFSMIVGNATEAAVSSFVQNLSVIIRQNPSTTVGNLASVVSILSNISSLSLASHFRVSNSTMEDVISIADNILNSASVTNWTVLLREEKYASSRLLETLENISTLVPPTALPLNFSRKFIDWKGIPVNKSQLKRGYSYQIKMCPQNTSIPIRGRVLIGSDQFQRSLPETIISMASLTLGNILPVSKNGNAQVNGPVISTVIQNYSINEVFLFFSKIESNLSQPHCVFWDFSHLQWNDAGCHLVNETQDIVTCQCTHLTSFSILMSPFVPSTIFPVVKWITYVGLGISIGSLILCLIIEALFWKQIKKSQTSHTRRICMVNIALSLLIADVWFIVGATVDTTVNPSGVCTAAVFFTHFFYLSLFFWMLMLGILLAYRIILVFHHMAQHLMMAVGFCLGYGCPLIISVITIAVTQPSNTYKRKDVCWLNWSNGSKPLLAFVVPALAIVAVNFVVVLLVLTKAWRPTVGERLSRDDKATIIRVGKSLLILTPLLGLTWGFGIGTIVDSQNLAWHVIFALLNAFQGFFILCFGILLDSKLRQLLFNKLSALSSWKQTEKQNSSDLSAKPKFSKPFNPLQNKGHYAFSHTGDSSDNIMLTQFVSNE
In words: BRET assay using TRUPATH biosensors, Gs activation of ADGRF1. Format: cell-based. The protocol:
(§1) To study the synthetic stalk peptide-induced G protein activation of ADGRD1 and ADGRF1, a BRET assay using TRUPATH biosensors was conducted to measure the proximal interaction between RLuc8 fused to the Gα subunit and GFP2 fused to the Gγ subunit. The TRUPATH suite of biosensors was obtained from Addgene (Addgene kit no. 1000000163) as a gift from B. Roth, including GαsS-RLuc8, Gαi1-RLuc8, Gβ3 and Gγ9-GFP2 as previously described.
(§2) The wild-type or mutant ADGRD1 and ADGRF1 were transiently co-transfected with plasmids encoding Gα-RLuc8 (GαsS-RLuc8 for Gs activation assay; Gαi1-RLuc8 for Gi activation assay), Gβ3 and Gγ9-GFP2 at a ratio of 2:1:1:1 (receptor plasmid, 800 ng; G protein subunit plasmids, 400 ng for each) in 2 ml HEK293F cells at a density of 1.2 × 10^6 cells per ml. Cell cultivation and receptor surface expression measurement were performed as described above. The cells were plated into 96-well white plates (40,000 cells per well) in 60 μl of assay buffer and incubated at 37 °C for 30 min. Then 10 μl of freshly prepared 50 μM coelenterazine 400a (Nanolight Technologies) was added. […] The cells were stimulated with 30 μl of synthetic stalk peptide at different concentrations and the BRET signals were monitored continuously five times. The last measurements were used in data analysis. The BRET ratios were calculated as the ratio of the GFP2 emission to RLuc8 emission.
Background: Bioluminescence resonance energy transfer reports proximity on the nanometre scale.

The target of assay [2] is T2, ADGRF1 (Homo sapiens, UniProt Q5T601, V689A).
T2 construct: Flag (N); expressed in transfected cells; host or cells: HEK293F
T2 sequence (Q5T601 20-910 V689A): T1 sequence (Q5T601 20-910 L769A) with V670A, A750L
The assay is described as above. Format: cell-based. Conditions: Gs, ADGRF1 V689^ICL2A, n = 3. The protocol: as §1, §2

Setting [3] is: read-out: pEC50 (mean ± s.e.m.) (converted).

Substitutions are numbered along the chain they refer to. Ends that are not written are not given here.

With TSFSILMSPFVP [pF1], the “Emax (mean ± s.e.m.)” value was 73 ± 11 % of WT on ADGRF1 [1] (Gs, ADGRF1 L769^5.61bA, n = 3) and 77 ± 10 % of WT at ADGRF1 [2]. For the same sequence, the EC50 was 151 nM at ADGRF1 [1] (setting [3]) and 204 nM on ADGRF1 [2] (setting [3]).

Source of the values: article PMC9046087, “Structural basis of tethered agonism of the adhesion GPCRs ADGRD1 and ADGRF1” (Nature, 2022).
